According to paper PMC10489651, “Six New Phenolic Glycosides from the Seeds of Moringa oleifera Lam. and Their α-Glucosidase Inhibitory Activity” (Molecules, 2023):

Molecular target: α-glucosidase
Assay: colorimetric α-glucosidase inhibition assay (p-nitrophenyl glucopyranoside substrate, […] nm)
Assay type: biochemical

Compound	IC50
C[C@@H]1O[C@@H](Oc2ccc(Cc3cc(CC#N)ccc3O)cc2)[C@H](O)[C@H](O)[C@H]1O [compound 4, 4-(α-L-rhamnopyranosyl) benzyl-1′-hydroxy-4′-phenylacetonitrile]	382.8 ± 1.42 µM
C[C@@H]1O[C@@H](Oc2ccc(C/C(=N/OS(=O)(=O)O)S[C@@H]3O[C@H](CO)[C@@H](O)[C@H](O)[C@H]3O)cc2)[C@H](O)[C@H](O)[C@H]1O [compound 16, glucomoringin]	301 ± 6.22 µM
